Results: US20070128217A1 (priority 2003, published 2007)

Assays:
[1] = system: antibodies in sera from SARS patients (sera 1a, 1b, 2, 6, 37, 62, London, SARS-yellow, SARS-green); type: binding, human; parameters: Binding of serum 6 to linear peptides of protein X1 of SARS-CoV Urbani / Binding of serum 37 to linear peptides of protein X1 of SARS-CoV Urbani / Binding of serum 6 to looped/cyclic peptide (PEPSCAN-ELISA) / Binding of serum 37 to looped/cyclic peptide (PEPSCAN-ELISA) / Binding of serum 37 to looped/cyclic peptides of protein X1 of SARS-CoV Urbani / Binding of serum 6 to linear peptides of protein X2 / Binding of serum 37 to linear peptides of protein X2 / Binding of serum 37 to looped/cyclic peptides of protein X2 of SARS-CoV Urbani / Binding of serum 6 to linear peptides of protein M of SARS-CoV Urbani / Binding of serum 37 to linear peptides of protein M of SARS-CoV Urbani / Binding of serum 6 to looped/cyclic peptides of protein M of SARS-CoV Urbani / Binding of serum 37 to looped/cyclic peptides of protein M of SARS-CoV Urbani / Binding of serum 6 to linear peptides of protein X3 of SARS-CoV Urbani / Binding of serum 37 to linear peptides of protein X3 of SARS-CoV Urbani / Binding of serum 37 to looped/cyclic peptides of protein X3 of SARS-CoV Urbani / Binding of serum 6 to linear peptides of protein X4 of SARS-CoV Urbani / Binding of serum 37 to linear peptides of protein X4 of SARS-CoV Urbani / Binding of serum 37 to looped/cyclic peptides of protein X4 of SARS-CoV Urbani / Binding of serum 6 to linear peptides of protein X5 of SARS-CoV Urbani / Binding of serum 37 to linear peptides of protein X5 of SARS-CoV Urbani / Binding of serum 37 to looped/cyclic peptides of protein X5 of SARS-CoV Urbani / Binding of serum 6 to linear peptides of protein N of SARS-CoV Urbani / Binding of serum 37 to linear peptides of protein N of SARS-CoV Urbani / Binding of serum 6 to linear peptide (PEPSCAN-ELISA) / Binding of serum 1a to looped/cyclic peptides of protein N of SARS-CoV Urbani / Binding of serum 1b to looped/cyclic peptides of protein N of SARS-CoV Urbani / Binding of serum 2 to looped/cyclic peptides of protein N of SARS-CoV Urbani / Binding of serum 6 to looped/cyclic peptides of protein N of SARS-CoV Urbani / Binding of serum 37 to looped/cyclic peptides of protein N of SARS-CoV Urbani / Binding of serum 62 to looped/cyclic peptides of protein N of SARS-CoV Urbani / Binding of serum London to looped/cyclic peptides of protein N of SARS-CoV Urbani / Binding of serum SARS-green to looped/cyclic peptides of protein N of SARS-CoV Urbani: unit not given here
[2] = system: rabbit serum obtained by immunizing a rabbit with the SARS-CoV strain Frankfurt 1; type: binding; parameters: Binding of a rabbit serum to linear peptides / Binding of a rabbit serum to looped peptides / Rabbit serum linear peptides / Rabbit serum looped peptides / Binding of a rabbit serum to linear peptides of protein N of SARS-CoV Urbani (Rabbit serum linear peptides) / Binding of a rabbit serum to looped/cyclic peptides of protein N of SARS-CoV Urbani (Rabbit serum looped peptides): unit not given here

Sequence	Binding of serum 1a to linear peptides of protein X1 of SARS-CoV Urbani [1]	Binding of serum 1a to looped/cyclic peptide (PEPSCAN-ELISA) [1]	Binding of serum 1b to linear peptides of protein X1 of SARS-CoV Urbani [1]	Binding of serum 1b to looped/cyclic peptide (PEPSCAN-ELISA) [1]	Binding of serum 2 to linear peptides of protein X1 of SARS-CoV Urbani [1]	Binding of serum 2 to looped/cyclic peptide (PEPSCAN-ELISA) [1]	Binding of serum 6 to linear peptides of protein X1 of SARS-CoV Urbani [1]	Binding of serum 6 to looped/cyclic peptide (PEPSCAN-ELISA) [1]	Binding of serum 37 to linear peptides of protein X1 of SARS-CoV Urbani [1]	Binding of serum 37 to looped/cyclic peptide (PEPSCAN-ELISA) [1]	Binding of serum 62 to linear peptides of protein X1 of SARS-CoV Urbani [1]	Binding of serum 62 to looped/cyclic peptide (PEPSCAN-ELISA) [1]	Binding of serum London to linear peptides of protein X1 of SARS-CoV Urbani [1]	Binding of serum London to looped/cyclic peptide (PEPSCAN-ELISA) [1]	Binding of serum SARS-green to linear peptides of protein X1 of SARS-CoV Urbani [1]	Binding of serum SARS-green to looped/cyclic peptide (PEPSCAN-ELISA) [1]	Binding of serum SARS-yellow to linear peptides of protein X1 of SARS-CoV Urbani [1]	Binding of serum SARS-yellow to looped/cyclic peptide (PEPSCAN-ELISA) [1]	Rabbit serum linear peptides [2]	Rabbit serum looped peptides [2]	also measured
FICNLLLLFVTIYSH	0.6	0.5	0.6	0.3	0.6	0.4	0.4	0.2	0.5	0.5	0.5	0.5	0.3	0.2	0.2	0.3	0.4	0.5	–	–	Binding of a rabbit serum to linear peptides [2]: 0.1; Binding of a rabbit serum to looped peptides [2]: 0.5
IIALNKRWQLALYKG	0.7	0.6	0.4	0.4	0.5	0.5	0.7	0.6	0.6	0.6	0.5	0.6	0.3	0.4	0.3	0.2	0.5	0.5	–	–	Recognition of the peptide by the rabbit serum [2]: recognized
IGVAFLAVFQSATKI	0.6	0.5	0.5	0.4	0.6	0.4	0.5	0.3	0.6	0.5	0.6	0.6	0.2	0.2	0.2	0.2	0.3	0.3	–	–	Binding of a rabbit serum to linear peptides [2]: 0.1; Binding of a rabbit serum to looped peptides [2]: 0.6
RTLSYYKLGASQRVG	–	–	–	–	–	–	–	–	–	–	–	–	–	–	–	–	–	–	0.5	1.0	Binding of serum 1a to linear peptides of protein M of SARS-CoV Urbani [1]: 0.7; Binding of serum 1a to looped/cyclic peptides of protein M of SARS-CoV Urbani [1]: 0.8; Binding of serum 1b to linear peptides of protein M of SARS-CoV Urbani [1]: 0.6; Binding of serum 1b to looped/cyclic peptides of protein M of SARS-CoV Urbani [1]: 0.5; Binding of serum 2 to linear peptides of protein M of SARS-CoV Urbani [1]: 0.7; Binding of serum 2 to looped/cyclic peptides of protein M of SARS-CoV Urbani [1]: 0.7; Binding of serum 6 to linear peptides of protein M of SARS-CoV Urbani [1]: 0.8; Binding of serum 6 to looped/cyclic peptides of protein M of SARS-CoV Urbani [1]: 1.5; Binding of serum 37 to linear peptides of protein M of SARS-CoV Urbani [1]: 0.5; Binding of serum 62 to linear peptides of protein M of SARS-CoV Urbani [1]: 0.5; Binding of serum London to linear peptides of protein M of SARS-CoV Urbani [1]: 0.3; Binding of serum London to looped/cyclic peptides of protein M of SARS-CoV Urbani [1]: 1.0; Binding of serum SARS-green to linear peptides of protein M of SARS-CoV Urbani [1]: 0.5; Binding of serum SARS-green to looped/cyclic peptides of protein M of SARS-CoV Urbani [1]: 0.4; Binding of serum SARS-yellow to linear peptides of protein M of SARS-CoV Urbani [1]: 0.4; Binding of serum SARS-yellow to looped/cyclic peptides of protein M of SARS-CoV Urbani [1]: 0.8
LACFVLAAVYRINWV	–	–	–	–	–	–	–	–	–	–	–	–	–	–	–	–	–	–	0.3	0.2	Binding of serum 1a to linear peptides of protein M of SARS-CoV Urbani [1]: 0.7; Binding of serum 1a to looped/cyclic peptides of protein M of SARS-CoV Urbani [1]: 0.7; Binding of serum 1b to linear peptides of protein M of SARS-CoV Urbani [1]: 0.7; Binding of serum 1b to looped/cyclic peptides of protein M of SARS-CoV Urbani [1]: 0.5; Binding of serum 2 to linear peptides of protein M of SARS-CoV Urbani [1]: 0.6; Binding of serum 2 to looped/cyclic peptides of protein M of SARS-CoV Urbani [1]: 0.9; Binding of serum 6 to linear peptides of protein M of SARS-CoV Urbani [1]: 0.4; Binding of serum 6 to looped/cyclic peptides of protein M of SARS-CoV Urbani [1]: 0.7; Binding of serum 37 to linear peptides of protein M of SARS-CoV Urbani [1]: 0.5; Binding of serum 37 to looped/cyclic peptides of protein M of SARS-CoV Urbani [1]: 0.6; Binding of serum 62 to linear peptides of protein M of SARS-CoV Urbani [1]: 0.5; Binding of serum 62 to looped/cyclic peptides of protein M of SARS-CoV Urbani [1]: 0.7; Binding of serum London to linear peptides of protein M of SARS-CoV Urbani [1]: 0.4; Binding of serum London to looped/cyclic peptides of protein M of SARS-CoV Urbani [1]: 0.3; Binding of serum SARS-green to linear peptides of protein M of SARS-CoV Urbani [1]: 0.6; Binding of serum SARS-green to looped/cyclic peptides of protein M of SARS-CoV Urbani [1]: 0.3; Binding of serum SARS-yellow to linear peptides of protein M of SARS-CoV Urbani [1]: 0.3; Binding of serum SARS-yellow to looped/cyclic peptides of protein M of SARS-CoV Urbani [1]: 0.4
HRWHTMVQTCTPNVT	–	–	–	–	–	–	–	–	–	–	–	–	–	–	–	–	–	–	0.7	0.3	Binding of serum 1a to linear peptides of protein X5 of SARS-CoV Urbani [1]: 0.7; Binding of serum 1a to looped/cyclic peptides of protein X5 of SARS-CoV Urbani [1]: 0.6; Binding of serum 1b to linear peptides of protein X5 of SARS-CoV Urbani [1]: 0.6; Binding of serum 1b to looped/cyclic peptides of protein X5 of SARS-CoV Urbani [1]: 0.5; Binding of serum 2 to linear peptides of protein X5 of SARS-CoV Urbani [1]: 0.8; Binding of serum 2 to looped/cyclic peptides of protein X5 of SARS-CoV Urbani [1]: 0.5; Binding of serum 6 to linear peptides of protein X5 of SARS-CoV Urbani [1]: 0.5; Binding of serum 6 to looped/cyclic peptides of protein X5 of SARS-CoV Urbani [1]: 0.3; Binding of serum 37 to linear peptides of protein X5 of SARS-CoV Urbani [1]: 0.7; Binding of serum 37 to looped/cyclic peptides of protein X5 of SARS-CoV Urbani [1]: 0.3; Binding of serum 62 to linear peptides of protein X5 of SARS-CoV Urbani [1]: 0.8; Binding of serum 62 to looped/cyclic peptides of protein X5 of SARS-CoV Urbani [1]: 0.3; Binding of serum London to linear peptides of protein X5 of SARS-CoV Urbani [1]: 0.7; Binding of serum London to looped/cyclic peptides of protein X5 of SARS-CoV Urbani [1]: 0.1; Binding of serum SARS-green to linear peptides of protein X5 of SARS-CoV Urbani [1]: 0.5; Binding of serum SARS-green to looped/cyclic peptides of protein X5 of SARS-CoV Urbani [1]: 0.3; Binding of serum SARS-yellow to linear peptides of protein X5 of SARS-CoV Urbani [1]: 0.5; Binding of serum SARS-yellow to looped/cyclic peptides of protein X5 of SARS-CoV Urbani [1]: 0.2
VFQSATKIIALNKRW	0.8	0.5	0.6	0.4	0.6	0.4	0.6	0.6	0.7	0.4	0.8	0.6	0.3	0.3	0.2	0.2	0.5	0.2	–	–	Recognition of the peptide by the rabbit serum [2]: recognized
